# Measured values reported in patent US7087228B2, “Preventing tooth decay and infective endocarditis using natural oligopeptides” (University of Southern California, priority 2002, dated 2006).
# Key:
# FTF expression = experiment: Western blot control with antibody specific to FTF; assay type: cell-based, S. mutans; details: same blot analyzed with antibody specific to FTF; FIG. 6 panel 2
# Procedure: (§1) For the Western blotting, the bacteria were incubated to the desired optical density, subjected to the freeze-thaw cycle and mixed with the sample loading buffer. The samples were heated at 100° C. for 15 minutes and subjected to the PAGE. The number of cells per lane of the gel was kept constant at 10^8 cells. The western blotting was performed in accordance with a standard procedure (Sambrook, J. and Russel D. W. Molecular Cloning, a laboratory manual, 3rd ed. Cold Spring Harbor Laboratory Press, NY, 2001). Briefly, after PAGE the samples were transferred onto the nitrocellulose membrane and the latter subjected to the standard ELISA procedure. The anti-GTFB mouse monoclonal antibody was previously characterized (Fukushima, K., Okada, T., Ochiai, K., Infection and Immunity 61:323–328 (1993), incorporated herein by reference). The secondary antibody (HRP-linked goat anti-mouse) and the detection reagents were purchased from Cell Signaling Technology (Beverly, Mass.).
# (§2) Synthetic CSP was dissolved in water to the concentration of 1 mg/mL as described in Li, Y-H et al., J. of Bact., 183:897–908 (2001). […]
# (§3) A Western blot analysis was performed to determine the effect of CSP on the level of GTFB expression. […] As a control, the same blot was analyzed with antibody specific to FTF, where it was observed that CSP has no effect on FTF expression (FIG. 6, panel 2).
# S. mutans = experiment: In vitro attachment assay to a smooth surface (Petri dish) with sucrose; assay type: cell-based; details: CSP at 8 μg/mL for 10 minutes prior to hour-long incubation on Petri dishes with sucrose; up to 51% without CSP; FIG. 8
# Procedure: The bacteria were grown in liquid cultures to the desired optical density. 20 ml of the cultures were then transferred into Petri dishes and sucrose added to the final concentration of 2%. The incubation was resumed for one hour, after which the liquid fraction was withdrawn and the fresh medium was added into which the layer of attached cells was scraped. The percentage of the attached bacteria was determined as the ratio of the optical densities of the attached to the total (a sum of attached and unattached) bacteria.
# Synthetic CSP was dissolved in water to the concentration of 1 mg/mL as described in Li, Y-H et al., J. of Bact., 183:897–908 (2001). The cultures were grown in Todd Hewitt Broth (THB) supplemented with 5% horse serum. CSP was added to the cultures at the time of diluting the overnight culture (time zero of the culture growth) to a designated concentration between 1 and 8 mcg/mL. The incubation then continued up to the optical density where the expression of GTF is maximal (OD 650=0.1). The cultures where then collected and used in Western blotting with anti-glucosyltransferase (gtf) antibody. […]
# An in vitro assay was performed to determine whether CSP can inhibit the attachment of S. mutans to a smooth surface. When sucrose was added to the medium, the wild-type S. mutans readily attached to the surface of a Petri dish. […]
# [1] = tested on: GTFB expression in the wild-type S. mutans; experiment: Western blot of GTFB expression after addition of CSP to cultures; assay type: cell-based; details: CSP added to fresh cultures at the time of dilution, 1 to 8 mcg/mL, FIG. 6 panel 1
# Procedure: as §1, §2, §3
# gtfB gene of S. mutans = experiment: Transcriptional fusion assay (gtfB promoter-luciferase, luminescence); assay type: cell-based; details: increasing concentrations of CSP, 10 minutes incubation at peak expression (end of lag phase); FIG. 7
# Source text: The fusion constructs and the transcription assay were previously described (Goodman, S. D. and Gao, Q., Plasmid 43:85–98 (2000)). Briefly, the constructs comprised the upstream regions of the gtfB and gtfC genes fused to the promoterless coding sequence of the firefly luciferase gene and inserted into the plasmid vector pVA838, a shuttle plasmid capable of propagating in both E. coli and S. mutans marked with erythromycin resistance. The plasmids were introduced into S. mutans GS5 by electroporation and the resulting erythromycin resistant strains were grown in liquid cultures and collected at various optical densities. The reporter gene (luciferase) expression was detected by measuring luminescence upon the addition of luciferin (the substrate for luciferase), see Goodman, S. D. and Gao Q. Plasmid 42:154–157 (1999), incorporated herein by reference.
# as §2
# The transcriptional fusion assay was performed to determine whether CSP inhibits the expression of the gtfB gene of S. mutans. […] When the expression peaked at the end of the lag phase prior to the exponential growth, the cells were challenged with increasing concentrations of CSP for an incubation period of 10 minutes and assessed for luminescence, the measure of reporter gene expression. […]
substance,measurement,setting,value
CSP: natural peptide produced and secreted by S. mutans that acts as an autoinducer; sequence SEQ ID NO: 1 (FIG. 1); synthetic CSP was used (SGSLSTFFRLFNRSFTQALGK; Streptococcus mutans),effect on FTF expression (Western blot),FTF expression,no effect
same,bacterial cells localized to the attached layer,S. mutans,less than 8%
same,peak expression of GTFB (Western blot),[1],lowered proportionally to the amount of peptide added
same,repression of gtfB reporter gene expression (luminescence),gtfB gene of S. mutans,increasing concentrations of CSP increased the magnitude of repression
